The results in this text go back to patent US6350859B1, “Class BI and CI scavenger receptors” (Massachusetts Institute of Technology, priority 1994, dated 2002).

The target in the experiment is T1, haSR-BI (Cricetulus griseus, UniProt Q60417).
T1 construct: expressed in transfected cells
T1 sequence (Q60417 1-509): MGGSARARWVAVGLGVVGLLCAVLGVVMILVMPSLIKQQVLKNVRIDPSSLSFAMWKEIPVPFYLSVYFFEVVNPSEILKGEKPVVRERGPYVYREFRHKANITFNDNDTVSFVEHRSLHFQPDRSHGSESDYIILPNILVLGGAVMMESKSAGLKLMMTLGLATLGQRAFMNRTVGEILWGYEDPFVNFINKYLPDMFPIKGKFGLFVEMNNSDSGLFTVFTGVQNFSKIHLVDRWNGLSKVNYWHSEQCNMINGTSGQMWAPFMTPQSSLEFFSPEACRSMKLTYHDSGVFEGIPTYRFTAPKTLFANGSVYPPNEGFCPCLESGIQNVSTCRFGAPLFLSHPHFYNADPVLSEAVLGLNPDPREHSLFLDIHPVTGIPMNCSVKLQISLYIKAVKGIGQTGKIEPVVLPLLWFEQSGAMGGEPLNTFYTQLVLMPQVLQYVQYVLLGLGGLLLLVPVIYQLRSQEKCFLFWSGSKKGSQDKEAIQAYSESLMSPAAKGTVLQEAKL
The experiment is described as follows: [3H]-liposome binding at 4° C. to haSR-BI in ldlA[haSR-BI] cells. Conditions: EDTA 1-10 mM. Set-up: species or system hamster. On the procedure:
Unilamellar liposomes were made by extrusion through policarbonate membranes (Szoka et al., 1980). Phospholipid liposomes were prepared containing the indicated phospholipid, phosphatidycholine, and free cholesterol in a molar ratio of 1:1:1. The lipids were mixed in chloroform and dried by rotary evaporation for 30 min. For preparation of radiolabeled liposomes, 50-75 μCi of [^3H]DPPC(62 Ci/mmol) were added to the lipid mixtures before drying. The dried lipids were resuspended in 150 mM NaCl, 0.1 mM EDTA, 10 mM HEPES, pH 7.5 (Buffer A). […] The final phospholipid concentration was determined by the method of Bartlett (1959). The average diameters of unlabeled liposomes, which were determined from either two or three independent preparations using light scattering with a Coulter N4 plus light scatterer apparatus (Coulter Electronics Inc., Hialeah, Fla.), were: PS, 105; PC, 114: PA, 125; PE, 129; P1, 113; and SM, 131 nm. The number of phospholipid molecules/PS liposome was calculated as follows. […]
Ligand Binding Assays. […] The cells were then solubilized with […], and radioactivity and protein determinations were made as described above. […] The binding values are expressed as nanograms of bound ^125I-labeled protein or ng of total phospholipids from ^3H-labeled liposomes/milligram of cell protein. […]

Regarding `O=C(O)CN(CCN(CC(=O)O)CC(=O)O)CC(=O)O` [EDTA], the “effect on PS liposome binding” value is reported as “not inhibited”.
